Experimental data taken from patent publication US9901592B2 (priority 2008, dated 2018).
In brackets after ≈: the same amount, converted by molar mass. Like-named read-outs stand apart in the source and are kept apart here.

Key:
[1] = system: S. aureus; assay: mouse systemic infection model (PD50); type: in vivo
[2] = system: S. pyogenes 3029; assay: Intraperitoneal (IP) mouse infection model (ED50); type: in vivo; settings: Streptococcus pyogenes, MAC-R S. pyogenes 3029
[3] = system: streptococci; assay: organism not typed; type: cell-based
[4] = system: N. meningitidis; assay: MIC, CLSI broth microdilution, invasive isolates; type: cell-based; settings: Neisseria meningitidis; 62 N. meningitidis isolates
Method: Example. […] Colonization of the nasopharynx (NP) by NM can lead to invasive meningococcal disease. Chemoprophylaxis is used to eradicate NP colonization and prevent transmission to nonimmune contacts. […] 62 isolates (91.9% blood culture) of NM were collected from 29 medical centers in North and South America and Europe (1997-2008). […] Serological identification was performed for serogroups (SGs) B, C, Y and W135.

[5] = system: U. urealyticum; assay: MIC testing in 10B broth (colour change); type: cell-based; settings: U. urealyticum (10 isolates)
[6] = system: H. influenzae ATCC 49247; assay: post-antibiotic effect (PAE) testing
[7] = system: S. pyogenes; assay: mouse systemic infection model (PD50); type: in vivo
[8] = system: U. parvum; assay: MIC testing in 10B broth (colour change); type: cell-based, Ureaplasma parvum; settings: U. parvum (10 isolates)
[9] = system: viridans group streptococci (VGS); type: cell-based; settings: VGS (51)
[10] = system: S. pneumoniae; type: cell-based
[11] = system: S. pneumoniae; assay: MIC of the strains of the mouse systemic infection model; type: cell-based; settings: Streptococcus pneumoniae
[12] = system: S. pneumoniae; assay: neutropenic mouse thigh infection; type: in vivo; settings: PO; for Dose for 2 log10 Reduction from 24 hour controls: QD
Method: Example. Neutropenic Mouse Thigh Infection. Mice were rendered neutropenic with IP injections of cyclophosamide at day −4 and day −1 of 150 mg/Kg and 100 mg/Kg, respectively. On day 0 mice were infected with approximately 5×10^5 CFU/ml of bacteria in a 0.1 ml volume into the right thigh. At 1.5 hours post infection mice received treatment via oral gavage. One group of infected mice were euthanized and thigh processed for bacterial titers to serve as T=0 controls. Twenty-four hours post treatment, the remaining mice were euthanized, thighs aseptically removed, weighed, homogenized, serially diluted and plated on bacterial growth media. CFUs per gram of thigh were calculated after overnight incubation of bacterial plates. The amount of test article required to achieve 1, 2, and 3 loge reductions from 24 hour control thighs were calculated. Additional studies were performed that fractionated the single treatment dose (Q24) into two (Q12), three (Q8) and four (Q6) equivalent doses to determine the pharmacodynamic nature of this compound. Further analysis includes static dose, EC50, 1 log kill and maximal effect (Emax).

[13] = system: S. pneumoniae; assay: microbe, parasite or virus in culture; type: cell-based; settings: Streptococcus pneumoniae
[14] = system: pneumococci; assay: microbe, parasite or virus in culture; type: cell-based, S. pneumoniae; settings: Streptococcus pneumoniae
[15] = S. aureus, single oral dose 1 hr post infection
[16] = S. pyogenes (macrolide susceptible)
[17] = strain 1077 Macrolide-S, 2 × MIC
[18] = strain 1077 Macrolide-S, 4 × MIC
[19] = strain 1077 Macrolide-S, 8 × MIC
[20] = strain 1635 Macrolide-R [erm(A)], 2 × MIC
[21] = strain 1635 Macrolide-R [erm(A)], 4 × MIC
[22] = strain 1635 Macrolide-R [erm(A)], 8 × MIC
[23] = strain 3665 Macrolide-R [mef(A)], 2 × MIC
[24] = strain 3665 Macrolide-R [mef(A)], 4 × MIC
[25] = strain 3665 Macrolide-R [mef(A)], 8 × MIC
[26] = strain 7127 Macrolide-S [S20N in L4, A105V in L22], 2 × MIC
[27] = strain 7127 Macrolide-S [S20N in L4, A105V in L22], 4 × MIC
[28] = strain 7127 Macrolide-S [S20N in L4, A105V in L22], 8 × MIC
[29] = S. pneumoniae (macrolide susceptible)
[30] = S. pneumoniae (mefR), read-out: MIC

Structure (SMILES): CC[C@H]1OC(=O)[C@@](C)(F)C(=O)[C@H](C)[C@@H](OC2OC(C)CC(N(C)C)C2O)[C@@](C)(OC)C[C@@H](C)C(=O)[C@H](C)[C@H]2N(CCCCn3cc(-c4cccc(N)c4)nn3)C(=O)O[C@]12C (some centres unmarked) [CEM-101, 11-N-4-(3-aminophenyl)-[1,2,3]triazol-1-yl]-butyl}-5-desosaminyl-3-oxo-2-fluoro-erythronolide A,-11,12-cyclic carbamate]
- PD50 ([1]; MRSA): 7.5 mg/kg
- PD50 ([1]; MRSA 300 (CA)): 9.5 mg/kg
- PD50 [1, 15]: 16.3 mg/kg
- ED50 [2]: 2.5 mg/kg
- MIC [3]: 0.06 µg/mL (≈ 0.071 µM)
- MIC50 [4]: ≤ 0.015 µg/mL
- MIC90 [4]: ≤ 0.015 µg/mL
- MIC Range [5]: 0.004 to 0.063 µg/mL
- MIC50 ([5]; Ureaplasma urealyticum): 0.008 µg/mL (≈ 0.00947 µM)
- MIC90 ([5]; Ureaplasma urealyticum): 0.031 µg/mL (≈ 0.0367 µM)
- average PAE ([6]; Gram-negative pathogens): 4.5 h
- PAE ([6]; H. influenzae ATCC 49247, 4X MIC, exposure 1 hour): 3.2 h
- PD50 ([7]; S. pyogenes (erythromycin R)): 5.1 mg/kg
- PD50 [7, 16]: 9.4 mg/kg
- MIC Range [8]: 0.002 to 0.031 µg/mL
- MIC50 ([8]; Ureaplasma parvum, read-out: MIC50): 0.008 µg/mL (≈ 0.00947 µM)
- MIC90 ([8]; Ureaplasma parvum, read-out: MIC90): 0.016 µg/mL (≈ 0.0189 µM)
- MIC50 [9]: ≤ 0.008 µg/mL
- MIC90 [9]: 0.06 µg/mL (≈ 0.071 µM)
- MIC Range [9]: ≦0.008-0.12 μg/ml
- single step mutation frequency ([10]; strain 24 Macrolide-R [erm(B)], 2 × MIC): 1.8 × 10^−7
- single step mutation frequency ([10]; strain 24 Macrolide-R [erm(B)], 4 × MIC): <5.0 × 10^−9
- single step mutation frequency ([10]; strain 24 Macrolide-R [erm(B)], 8 × MIC): <5.0 × 10^−9
- single step mutation frequency ([10]; strain 1076 Macrolide-R [erm(B)&mef(A)], 2 × MIC): <2.5 × 10^−8
- single step mutation frequency ([10]; strain 1076 Macrolide-R [erm(B)&mef(A)], 4 × MIC): 7.5 × 10^−9
- single step mutation frequency ([10]; strain 1076 Macrolide-R [erm(B)&mef(A)], 8 × MIC): 2.0 × 10^−9
- single step mutation frequency [10, 17]: <9.1 × 10^−9
- single step mutation frequency [10, 18]: <9.1 × 10^−9
- single step mutation frequency [10, 19]: <9.1 × 10^−9
- single step mutation frequency [10, 20]: 1.6 × 10^−8
- single step mutation frequency [10, 21]: <2.0 × 10^−10
- single step mutation frequency [10, 22]: <2.0 × 10^−10
- single step mutation frequency ([10]; strain 2686 Macrolide-R [L4 mutation], 2 × MIC): <2.5 × 10^−9
- single step mutation frequency ([10]; strain 2686 Macrolide-R [L4 mutation], 4 × MIC): <2.5 × 10^−9
- single step mutation frequency ([10]; strain 2686 Macrolide-R [L4 mutation], 8 × MIC): <2.5 × 10^−9
- single step mutation frequency ([10]; strain 3009 Macrolide-R [23S rRNA mutation], 2 × MIC): <5.9 × 10^−9
- single step mutation frequency ([10]; strain 3009 Macrolide-R [23S rRNA mutation], 4 × MIC): <5.9 × 10^−9
- single step mutation frequency ([10]; strain 3009 Macrolide-R [23S rRNA mutation], 8 × MIC): <5.9 × 10^−9
- single step mutation frequency [10, 23]: 6.8 × 10^−7
- single step mutation frequency [10, 24]: 1.4 × 10^−7
- single step mutation frequency [10, 25]: <4.5 × 10^−10
- single step mutation frequency [10, 26]: <2.0 × 10^−10
- single step mutation frequency [10, 27]: <2.0 × 10^−10
- single step mutation frequency [10, 28]: <2.0 × 10^−10
- MIC [11, 29]: < 0.03 µg/mL
- MIC [11, 30]: < 0.03 µg/mL
- Max. change in log10CFUs from 24 hr. controls ([12]; S. pneumoniae 1629): −5.81 log10CFUs
- Dose for 2 log10 Reduction from 24 hour controls ([12]; S. pneumoniae 1629): 7.0 mg/Kg
- Max. change in log10CFUs from 24 hr. controls ([12]; S. pneumoniae 6303): −6.17 log10CFUs
- Emax ([12]; S. pneumoniae 6303, Q6): 5.83 log10CFU/thigh
- EC50 ([12]; S. pneumoniae 6303, Q8): 9.0 mg/kg
- EC50 ([12]; S. pneumoniae 6303, Q12): 14.5 mg/kg
- Emax ([12]; S. pneumoniae 6303, Q12): 4.95 log10CFU/thigh
- 1 log kill ([12]; S. pneumoniae 6303, Q24): 10.8 mg/Kg
- EC50 ([12]; S. pneumoniae 6303, Q24): 5.7 mg/kg

Structure (SMILES): CC[C@H]1OC(=O)[C@H](C)[C@@H](O[C@H]2C[C@@](C)(OC)[C@@H](O)[C@H](C)O2)[C@H](C)[C@@H](O[C@@H]2O[C@H](C)C[C@H](N(C)C)[C@H]2O)[C@](C)(OC)C[C@@H](C)C(=O)[C@H](C)[C@@H](O)[C@]1(C)O [CLR, clarithromycin]
- PD50 ([1]; MRSA): 5.0 mg/kg
- PD50 ([1]; MRSA 300 (CA)): 19.5 mg/kg
- PD50 [1, 15]: 22.7 mg/kg
- MIC50 [3]: 0.03 µg/mL (≈ 0.0401 µM)
- MIC90 [3]: 0.03 µg/mL (≈ 0.0401 µM)
- MIC Range [3]: ≦0.008-0.25 μg/ml
- MIC [4]: 0.015 to 0.25 µg/mL (≈ 0.0201 to 0.334 µM)
- MIC50 [4]: 0.03 µg/mL (≈ 0.0401 µM)
- MIC90 [4]: 0.12 µg/mL (≈ 0.16 µM)
- MIC90 [13]: > 32 µg/mL
- PD50 ([7]; S. pyogenes (erythromycin R)): 22.8 mg/kg
- PD50 [7, 16]: 24.8 mg/kg
- MIC50 ([14]; pneumococci, L4 mutations (27)): 16 µg/mL (≈ 21.4 µM)
- MIC90 ([14]; pneumococci, L4 mutations (27)): 32 µg/mL (≈ 42.8 µM)
- MIC ([14]; read-out: MIC range, pneumococci, L4 mutations (27)): 1 to 32 µg/mL (≈ 1.34 to 42.8 µM)
- Mutant selection frequencies ([10]; S. pneumoniae, at 2×MIC): <1.0×10^−9-5.0×10^−7
- single step mutation frequency [10, 17]: 1.1 × 10^−9
- single step mutation frequency [10, 18]: <1.2 × 10^−10
- single step mutation frequency [10, 19]: <1.2 × 10^−10
- single step mutation frequency [10, 20]: <3.1 × 10^−9
- single step mutation frequency [10, 21]: <3.1 × 10^−9
- single step mutation frequency [10, 22]: <3.1 × 10^−9
- single step mutation frequency [10, 23]: 5.0 × 10^−7
- single step mutation frequency [10, 24]: <5.0 × 10^−10
- single step mutation frequency [10, 25]: <5.0 × 10^−10
- single step mutation frequency [10, 26]: <1.0 × 10^−9
- single step mutation frequency [10, 27]: <1.0 × 10^−9
- single step mutation frequency [10, 28]: <1.0 × 10^−9
- MIC [11, 29]: > 16 µg/mL
- MIC [11, 30]: 0.5 µg/mL
- MIC ([11]; S. pneumoniae serotype 19A, read-out: MIC): > 16 µg/mL
- Max. change in log10CFUs from 24 hr. controls ([12]; S. pneumoniae 1629): −5.75 log10CFUs
- Dose for 2 log10 Reduction from 24 hour controls ([12]; S. pneumoniae 1629): 9.0 mg/Kg
- Max. change in log10CFUs from 24 hr. controls ([12]; S. pneumoniae 6303): −5.20 log10CFUs
